Source: patent US20040176329A1, “Drugs for promoting the proliferation, differentiation and/or survival of glial cells containing cyclic phosphatidic acid” (priority 2001, published 2004)

Legend:
NIH-3T3 = experiment: Formation of stress fiber in NIH-3T3 by addition of lysophospholipids; format: cell-based, mouse; conditions: 10 μM, 37° C., 30 minutes, subconfluent serum starvation state; control: no formation
Description: NIH-3T3, a mouse-derived fibroblast cell, was incubated in a Dulbecoo's Modified Eagle's Medium (DMEM) containing 10% fetal bovine serum (FBS; made by Moregate), and was used in the Experiment. 2.5 ×10^4 cells of the NIH-3T3 were inoculated in a petri dish (10 cm in diameter) paved with cover glasses of 22 mm in diameter, and the medium was replacing with a FBS-free medium after 24 hours, and the cells were incubated in a serum starvation state for 48 hours. 10 μM of the lysophospholipid was added, and the cells were incubated at 37° C. for 30 minutes for stimulation. Then, the cells were fixed in the Dalbecco's PBS containing 3.7% of paraformaldehyde and 0.1% of Triton X-100 at room temperature for 10 minutes. Thereafter, the cells were stained with 5 units/ml of rhodamine phalloidin (made by Funakoshi) at 37° C. for 1 hour. The cover glasses were washed with PBS thrice, and observation was carried out by a cofocus laser microscope TCS NT Control laser Scanning Microscope (made by Leica).
The product obtained by the A.sp.362-derived PLD reaction was studied with respect to its biochemical activity in order to confirm further that it was a compound which is identical to cPA. Namely, the activity of forming actin stress fiber in a fibroblast cell, one of the physiological activities of cPA, was studied. To NIH-3T3, i.e. a fibroblast cell line derived from mouse, in the subconfluent state in the serum starvation state, each 10 μM of LPA, a chemically synthesized PHYLPA, or cPA, i.e. the PLD reaction product was added at 37° C. for 30 minutes, and then actin stress fiber was stained with Rhodamine phalloidin, and observation was carried out.

oligodendrocytes = experiment: Oligodendrocyte primary culturing system with cPA or LPA added: oligodendrocytes; format: cell-based, rat; conditions: 5 μM per dish; for oligodendrocyte cell number and dendrites: further 10 days after 3P-OL, FIG. 13
Description: (§1) A mother rat of 18 days of pregnancy (E18Wistar Rat) was put into an anesthesia bottle containing an adequate amount of diethyl ether, and was anesthetized. The anesthetization was carried out for 3-5 minutes and stopped just before death. The mother rat was taken out of the anesthesia bottle, put on a suitable vat to lie on its back, and disinfected at the hypogastric area with ethanol. The rat was tom along a cut line about 3-4 cm upward from the tail joint by a scissors, and opened sideward with the scissors to separate the inner membrane from the skin. The skin was tom to expose the inner membrane, which was disinfected again with ethanol and tom to take out the uterus. The Y-shaped section of the uterus was cut while lifting the uterus, and the uterus was taken out. The taken out uterus was dipped in a cooled MEM^− in order to decrease the damage of the fetus brain.
(§2) The cerebral cortex was picked by a round pincette into a 35 mm dish to which 2 ml of dispase I (3 U/ml) was added, and was placed in a CO2 5% and humidity 95% incubator at 37° C. for 5 minutes. Then, Dnase (1 ml) was added thereto, and the dish was put in the incubator for 10 minutes again. The resultant solution was sufficiently pipetted while being careful not to make bubbles by a Pasteur pipette having the top end rounded by burning, so that the cells might be free from any bundles. The upper inlet of 50 ml tube was covered with a 70 μm mesh, and the mesh was then wetted with an adequate amount of MEM^−. The cell suspension thus obtained was poured into the tube through the mesh, and about 2 ml of MEM^− was poured to wash the mesh. The mesh was removed, and the resultant was messed up to 30-40 ml with MEM^−. The thus obtained sample was centrifuged at 1,000 rpm for 5 minutes, and the supernatant was removed. The sample was messed up again to 30-40 ml with MEM^−, pipetted and centrifuged again at 1,000 rpm. The supernatant was removed, and the sample was supplied with 30 ml of MEM^−, and sufficiently pipetted, and then the cell number was countered by a cell counter. The cell suspension was inoculated in the PLL-coated dishes to be 1.0×10^7 cells/dish. The liquid was adjusted with MEM^+ to be a final volume of 10 ml/dish, and the cells were cultured in an incubator.
(§3) After disposal of the culture medium, the dish is washed twice with about 3 ml of PBS(−), and 10 ml of the fresh culture medium is poured. The medium change after the 17th day is carried out using B.S (serum-free medium). Only at the first medium change, 200 μl of bFGF is added per dish. It is because the O-2A precursor cell is grown.
(§4) The dish is washed twice with about 5 ml of PBS(−). At the first passage, the dish is left stand for 2-3 minutes after supplying PBS(−) at the second time. 2-3 ml of 0.05% trypsin is added, and the dish is left stand in a 37° C. incubator for 8 minutes. After observation of the cell condition with a microscope, while keeping the trypsin as it was, the dish is supplied with MEM^+ at the same amount as the trypsin, and the cells is pipetted to stop the action of trypsin. The resultant was centrifuged at 1,000 rpm for 5 minutes. After removing the supernatant, 20-30 ml of MEM^− is added, and the resultant is pipetted again, centrifuged at 1,000 rpm for 5 minutes. Then, the cell number is counted by a cell counter. The supernatant is discarded, 20-30 ml of MEM^+ (B.S at the third passage) is added, and the resultant is pipetted, and the cell number is counted by a cell counter. Depending on respective passage stages, the cells are inoculated in respective dishes at the following number, and are cultured while left standing in an incubator.
(§5) From the stage of primary culturing, cPA or LPA was added to be an amount of 5 μM per dish every passage and medium change. […]

O-2A precursor cells = experiment: Oligodendrocyte primary culturing system with cPA or LPA added: O-2A precursor cells; format: cell-based, rat; conditions: 5 μM per dish; for number of O-2A precursor cells versus control: 6th day from first passage (1P-6th day)
Description: as §1, §2
After disposal of the culture medium, the dish is washed twice with about 3 ml of PBS(−), and 10 ml of the fresh culture medium is poured. The medium change after the 17th day is carried out using B.S (serum-free medium). […]
(§6) The dish is washed twice with about 5 ml of PBS(−). […] Then, the cell number is counted by a cell counter. The supernatant is discarded, 20-30 ml of MEM^+ (B.S at the third passage) is added, and the resultant is pipetted, and the cell number is counted by a cell counter. […]

astrocytes = experiment: Oligodendrocyte primary culturing system with cPA or LPA added: astrocytes; format: cell-based, rat; conditions: 5 μM per dish; for astrocytes by GFAP staining: 2P-6th day, fluorescence microscope, FIG. 10; for state and cell density of astrocytes: 6th day from second passage (2P-6th day), serum-free medium, FIG. 9; for remaining astrocytes: 6th day from third passage (3P-6th day), FIG. 11
Description: as §1, §2, §3, §4, §5

[1] = test system: primary cultured cerebral cortex cells (neurons); experiment: Oligodendrocyte primary culturing system with cPA or LPA added: cell appearance at early culturing stage; format: cell-based, rat; conditions: 5 μM per dish, FIG. 7; for aggregation of cells and bundling of neurons: early culturing stage (P-6th day)
Description: as §1
as §2, with “The sample was messed up again to 30-40 ml with MEM^−, pipetted and centrifuged again at 1,000 rpm. The supernatant was removed, and the sample was supplied with 30 ml of MEM^−, and sufficiently pipetted, and then the cell number was countered by a cell counter. The cell suspension was inoculated in the PLL-coated dishes to be 1.0×10^7 cells/dish. The liquid was adjusted with MEM^+ to be a final volume of 10 ml/dish, and the cells were cultured in an incubator.” left out
as §6

[2] = 3P-6th day, fluorescence microscope, FIG. 12

Compound	formation of actin stress fiber (Rhodamine phalloidin staining) (NIH-3T3)	MBP staining colour versus control (oligodendrocytes; [2])	oligodendrocyte cell number and dendrites (oligodendrocytes)	cell density (O-2A precursor cells; 1P-6th day, FIG. 8)	number of O-2A precursor cells versus control (O-2A precursor cells; FIG. 8)	proliferation of O-2A precursor cells (conclusion) (O-2A precursor cells; early culturing stage)	astrocytes by GFAP staining (astrocytes)	state and cell density of astrocytes (astrocytes)	remaining astrocytes (astrocytes)	survival of astrocytes (conclusion) (astrocytes; all culturing stages)	survival of astrocytes (astrocytes; further 10 days after 3P-OL, FIG. 13)	aggregation of cells and bundling of neurons [1]	differentiation of oligodendrocytes by 04 staining (oligodendrocytes; 2P-6th day, fluorescence microscope, FIG. 10)	state of dendrites of oligodendrocytes (oligodendrocytes; 3P-6th day, FIG. 11)	extent of MBP staining along the dendrite (oligodendrocytes; 3P-6th day, FIG. 12)	cell appearance versus control ([1]; 6th day from primary culturing (P-6th day))
CCCCCC[C@@H]1C[C@@H]1CCCCCCCC(=O)OC[C@@H]1COP(=O)(O)O1 [PHYLPA]	formation of stress fibers was observed	–	–	–	–	–	–	–	–	–	–	–	–	–	–	–
CCCCCCCC/C=C\CCCCCCCC(=O)OCC1COP(=O)(O)O1 (stereo not shown) [cPA, 1-oleoyl cyclic phosphatidic acid]	formation of stress fibers was observed	develops color stronger	many dendrites of oligodendrocytes around them which were not suffered from apoptosis	much higher than the others	increase in number more remarkably	promotes O-2A precursor cells to proliferate	exists in a dense tissue	remained vigorous, and remained high in cell density	the astrocytes which was deformed to the narrow ones still remain	promotes the survival of astrocytes through all their culturing stages	the astrocytes survived even at this stage	causes cells to aggregate and neurons to be bundled	–	–	–	–
lysophosphatidic acid [LPA]	formation of stress fibers was observed	develops color stronger	the cell number itself decreased and the dendrite fell ragged	–	increase in number more remarkably	–	the tissue of the astrocytes can be confirmed	lowered in cell density, though not so wrong as in the control	little astrocytes remains	–	–	aggregate to form bundles of the neurons	elongated dendrites to form fine mesh-shape and differentiations is proceeded	dendrites of the oligodendrocytes suffer from aoptosis and begin to be ragged	even the tip of the dendrite is stained	no large difference in cell appearance
